“And” between values parts separate entries of the source, which are not always exact repeats. Equal values may be shown once.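 Compound exposure: 48 hours, 5 concentrations, 96-well plates. Here, GI50 denotes the concentration required for 50% inhibition of growth. TGI: concentration producing complete growth inhibition.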

Test systems include CAKI-1 renal; EKVX NSCLC; HCC-2998 colon; HL-60(TB) leukemia; K-562 leukemia; LOX IMVI melanoma; NCI-H522 lung; SF-295 CNS; SK-MEL-5 melanoma; SK-OV-3 ovarian.
What all share (assay): DTP human tumour cell line panel, 48 h

Turning to `C/C([O-])=C1\Cc2ccccc2C1=O.C/C([O-])=C1\Cc2ccccc2C1=O.CC[O-].CC[O-].[Ti+4]`, the GI50 in the test with CAKI-1 renal was 36.5 µM; with EKVX NSCLC it was 29.6 µM; in the test with HCC-2998 colon it was 17.3 µM; in the test on HL-60(TB) leukemia it was 13.1 µM; in the test on K-562 leukemia it was 20.3 µM; with LOX IMVI melanoma, 13 µM. Further, the GI50 in the test with NCI-H522 lung was 14.2 µM; in the test with SF-295 CNS it was 14.5 µM; in the test on SK-MEL-5 melanoma it was 19.3 µM; in the test on SK-OV-3 ovarian it was 20.3 µM. The TGI in the test with CAKI-1 renal was above 100 µM; with EKVX NSCLC, above 100 µM; in the test with HCC-2998 colon, 58.8 µM; in the test on HL-60(TB) leukemia, 50.8 µM; with K-562 leukemia, above 78.6 µM; in the test with LOX IMVI melanoma it was 32 µM. Moreover, the TGI with NCI-H522 lung was 47.6 µM; with SF-295 CNS, 32 µM; in the test with SK-MEL-5 melanoma it was above 57.8 µM; with SK-OV-3 ovarian, 81.7 µM.
As for `C=C1CC2(C[C@@H](c3ccccc3)O[C@@H](c3ccccc3)C2)OC1=O` (some centres undefined), the total growth inhibition concentration (TGI) in the test with CAKI-1 renal is 4.53 µM; in the test with EKVX NSCLC it was 25.7 µM; in the test on HCC-2998 colon, 14.6 µM; with HL-60(TB) leukemia, 2.84 µM; in the test with K-562 leukemia, 7.51 µM; with LOX IMVI melanoma, 2.84 µM. The TGI in the test on NCI-H522 lung is 3.02 µM; in the test on SF-295 CNS, 26.8 µM; in the test on SK-MEL-5 melanoma it was 8.83 µM; with SK-OV-3 ovarian it was 27.8 µM.
Take `CCC(CC)n1cc(C(=O)NC(=O)NCCCCCOC(=O)CCCCCCCCCCC(=O)OCCCCCNC(=O)NC(=O)c2cn(C(CC)CC)c(=O)[nH]c2=O)c(=O)[nH]c1=O`: the concentration for total growth inhibition (TGI) in the test with CAKI-1 renal, in the test with EKVX NSCLC, in the test on HCC-2998 colon, in the test on HL-60(TB) leukemia, in the test on K-562 leukemia and in the test on LOX IMVI melanoma was above 100 µM in each case. Also, the total growth inhibition concentration (TGI) with NCI-H522 lung, in the test on SF-295 CNS, in the test on SK-MEL-5 melanoma and in the test with SK-OV-3 ovarian was above 100 µM in each case.
In the case of `CCCCCCC#Cc1ccccc1C#CCO`, the GI50 was 14.6 µM with CAKI-1 renal; 21.9 µM in the test with EKVX NSCLC; 23.7 µM in the test with HCC-2998 colon; 38.7 µM with HL-60(TB) leukemia; 28.8 µM with K-562 leukemia; 20.3 µM in the test with LOX IMVI melanoma. Also, the GI50 is 18.7 µM in the test on NCI-H522 lung, 16.2 µM in the test with SF-295 CNS, 16.8 µM with SK-MEL-5 melanoma and 18.4 µM in the test on SK-OV-3 ovarian. For the same compound, the total growth inhibition concentration (TGI) in the test with CAKI-1 renal is 33.2 µM; in the test with EKVX NSCLC it was 50.6 µM; in the test on HCC-2998 colon it was 42.6 µM; in the test with HL-60(TB) leukemia, above 100 µM; in the test on K-562 leukemia, above 100 µM; with LOX IMVI melanoma it was 49.3 µM. The total growth inhibition concentration (TGI) in the test with NCI-H522 lung is 38.6 µM; in the test on SF-295 CNS, 30.2 µM; with SK-MEL-5 melanoma it was 30.8 µM; in the test with SK-OV-3 ovarian, 34.4 µM.
For the compound `O=C1OC(CC(=O)c2ccc(Cl)cc2Cl)C(Cl)=C1Cl` (centres undefined), the total growth inhibition concentration (TGI) was above 70.3 µM in the test on CAKI-1 renal; above 76.9 µM with EKVX NSCLC; 29.4 µM in the test with HCC-2998 colon; above 75.6 µM with HL-60(TB) leukemia; above 76.7 µM in the test with K-562 leukemia; 57.9 µM in the test on LOX IMVI melanoma. For the same compound, the TGI was 34.7 µM in the test with NCI-H522 lung, above 100 µM in the test with SF-295 CNS, above 66.3 µM in the test on SK-MEL-5 melanoma and above 63.4 µM in the test with SK-OV-3 ovarian.
As to `CN(C)CCNC(=O)c1ccc(C(=O)NCCN(C)C)c2nc3ccccc3cc12`, the concentration for total growth inhibition (TGI) in the test with CAKI-1 renal was 9.09 µM; with EKVX NSCLC it was 6.89 µM; in the test on HCC-2998 colon, 2.98 µM; in the test on HL-60(TB) leukemia, 9.5 µM; in the test on K-562 leukemia, above 30 µM; in the test with LOX IMVI melanoma, 3.15 µM. For the same compound, the TGI is 1.93 µM in the test with NCI-H522 lung, 16.4 µM in the test with SF-295 CNS, 4.34 µM with SK-MEL-5 melanoma and 7.5 µM with SK-OV-3 ovarian.
With `CCCCCCCCCCC(O)[C@H]1CCC(C2CC[C@H]([C@H](O)CCCCCCCCCCC(O)CC3=CC(C)OC3=O)O2)O1` (some centres undefined), the GI50 in the test with CAKI-1 renal is 4.09 µM; in the test on EKVX NSCLC, 2.09 µM; in the test on K-562 leukemia, below 0.01 µM; in the test on LOX IMVI melanoma it was 1.18 µM; with SF-295 CNS, 0.29 µM; in the test on SK-MEL-5 melanoma, below 0.01 µM. For the same compound, the total growth inhibition concentration (TGI) is 15 µM in the test with HCC-2998 colon; 6.37 µM with HL-60(TB) leukemia; 4.55 µM with K-562 leukemia; 3.09 µM and 2.92 µM in the test on LOX IMVI melanoma; 5.06 µM with NCI-H522 lung; 14.1 µM with SF-295 CNS. The TGI is 2.47 µM and 1.74 µM with SK-MEL-5 melanoma; 15.7 µM in the test on SK-OV-3 ovarian.
On to `O=C1c2ccc3c4c5ccc(c24)C(=O)N1CCCOCCCCOCCCNCc1ccc(cc1)CNCCCOCCCCOCCCN(C3=O)C5=O`, for which the GI50 is 0.834 µM with CAKI-1 renal; 0.824 µM in the test with EKVX NSCLC; 0.928 µM in the test on HCC-2998 colon; 1.01 µM with HL-60(TB) leukemia; 0.987 µM in the test on K-562 leukemia; 0.797 µM with LOX IMVI melanoma. In addition, the GI50 with NCI-H522 lung was 0.854 µM; in the test on SF-295 CNS, 0.881 µM; with SK-MEL-5 melanoma, 0.855 µM; with SK-OV-3 ovarian it was 1.18 µM. The TGI is 1.71 µM in the test on CAKI-1 renal; 1.63 µM in the test on EKVX NSCLC; 1.68 µM in the test with HCC-2998 colon; 2.03 µM in the test on HL-60(TB) leukemia; 2.4 µM in the test with K-562 leukemia; 1.52 µM with LOX IMVI melanoma. For the same compound, the TGI with NCI-H522 lung was found to be 1.79 µM; with SF-295 CNS it was 1.69 µM; with SK-MEL-5 melanoma it was 1.55 µM; in the test with SK-OV-3 ovarian, 2.66 µM.
For the compound `Cc1cccc(NC(=O)c2cc3cc(N=Nc4ccccc4Cl)ccc3oc2=O)c1`, the TGI in the test on CAKI-1 renal is above 100 µM; in the test on EKVX NSCLC it was above 100 µM; in the test on HCC-2998 colon it was 70.4 µM; with HL-60(TB) leukemia, above 100 µM; with K-562 leukemia it was above 100 µM; in the test on LOX IMVI melanoma, 27.4 µM. Also, the TGI was 56.8 µM in the test with NCI-H522 lung, above 100 µM with SF-295 CNS, 47.1 µM with SK-MEL-5 melanoma and above 100 µM with SK-OV-3 ovarian.
As to `Cc1nc2sc(C(=O)Nc3cccc4ccccc34)c(N)c2cc1C(=O)/C=C/c1ccccc1`, the GI50 is 0.422 µM in the test on CAKI-1 renal; 1.14 µM in the test on EKVX NSCLC; 0.852 µM in the test with HCC-2998 colon; 0.353 µM in the test with HL-60(TB) leukemia; 0.191 µM with K-562 leukemia; 0.183 µM in the test with LOX IMVI melanoma. Also, the 50% growth inhibitory concentration (GI50) in the test with NCI-H522 lung is 0.215 µM; with SF-295 CNS, 0.514 µM; in the test with SK-MEL-5 melanoma it was 0.379 µM; in the test on SK-OV-3 ovarian it was 1.35 µM. Besides, the total growth inhibition concentration (TGI) is 1.44 µM in the test with CAKI-1 renal; above 36.7 µM in the test on EKVX NSCLC; 1.63 µM with HCC-2998 colon; 1.82 µM with HL-60(TB) leukemia; above 50 µM in the test with K-562 leukemia; 0.64 µM with LOX IMVI melanoma. The TGI was 2.11 µM with NCI-H522 lung, 3.89 µM with SF-295 CNS, 1.69 µM with SK-MEL-5 melanoma and above 50 µM with SK-OV-3 ovarian.

One may read the GI50 as the concentration giving 50% growth inhibition. In general, TGI refers to the concentration at which net growth stops.
